Assay results reported in PMC9516332 (Frontiers in Oncology, 2022).
Read-outs that look alike come from different tables or passages of the source.

What was measured:
Test in all cases: Kinase panel profiling at 1 µmol/L (MSA or IMAP), percentage inhibition
Type in all cases: biochemical
[1] = biological target: panel of 255 wild-type kinases (Homo sapiens, UniProt P41240); settings: read-out: %-inhibition at 1 µmol/L, CSK
[2] = biological target: panel of 255 wild-type kinases (Homo sapiens, UniProt P31749); settings: read-out: %-inhibition AKT1
[3] = biological target: T1, panel of 255 wild-type kinases (Homo sapiens, UniProt Q9UF33); settings: read-out: %-inhibition at 1 µmol/L, EPHA6
T1 sequence (Q9UF33 23-1036): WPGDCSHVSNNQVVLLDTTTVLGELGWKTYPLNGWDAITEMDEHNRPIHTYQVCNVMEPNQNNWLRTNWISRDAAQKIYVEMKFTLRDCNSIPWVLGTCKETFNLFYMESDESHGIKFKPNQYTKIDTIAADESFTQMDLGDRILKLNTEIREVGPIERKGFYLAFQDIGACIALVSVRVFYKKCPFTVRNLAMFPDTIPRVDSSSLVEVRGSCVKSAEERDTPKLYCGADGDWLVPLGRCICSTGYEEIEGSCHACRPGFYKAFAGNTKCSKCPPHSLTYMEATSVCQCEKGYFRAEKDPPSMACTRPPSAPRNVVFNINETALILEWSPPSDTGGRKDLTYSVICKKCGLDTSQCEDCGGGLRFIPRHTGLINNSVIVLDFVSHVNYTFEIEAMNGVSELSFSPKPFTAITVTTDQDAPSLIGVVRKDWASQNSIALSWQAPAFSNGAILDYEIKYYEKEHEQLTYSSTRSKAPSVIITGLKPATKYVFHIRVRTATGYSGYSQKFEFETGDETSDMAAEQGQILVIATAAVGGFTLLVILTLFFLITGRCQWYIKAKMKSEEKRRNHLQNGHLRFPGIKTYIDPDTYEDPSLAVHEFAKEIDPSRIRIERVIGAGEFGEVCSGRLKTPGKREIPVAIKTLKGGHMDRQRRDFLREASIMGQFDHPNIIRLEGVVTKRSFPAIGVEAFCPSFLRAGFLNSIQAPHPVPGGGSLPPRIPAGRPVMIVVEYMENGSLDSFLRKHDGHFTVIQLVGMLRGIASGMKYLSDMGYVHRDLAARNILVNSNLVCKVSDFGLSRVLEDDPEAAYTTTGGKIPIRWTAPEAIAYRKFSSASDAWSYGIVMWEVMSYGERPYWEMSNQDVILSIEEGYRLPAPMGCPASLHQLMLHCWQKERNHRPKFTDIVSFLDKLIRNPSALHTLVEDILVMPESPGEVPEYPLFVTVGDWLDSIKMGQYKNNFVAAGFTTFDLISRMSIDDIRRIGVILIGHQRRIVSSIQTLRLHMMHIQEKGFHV

[4] = biological target: T2, panel of 255 wild-type kinases (Homo sapiens, UniProt P21709); settings: read-out: %-inhibition at 1 µmol/L, EPHA1
T2 sequence (P21709 26-976): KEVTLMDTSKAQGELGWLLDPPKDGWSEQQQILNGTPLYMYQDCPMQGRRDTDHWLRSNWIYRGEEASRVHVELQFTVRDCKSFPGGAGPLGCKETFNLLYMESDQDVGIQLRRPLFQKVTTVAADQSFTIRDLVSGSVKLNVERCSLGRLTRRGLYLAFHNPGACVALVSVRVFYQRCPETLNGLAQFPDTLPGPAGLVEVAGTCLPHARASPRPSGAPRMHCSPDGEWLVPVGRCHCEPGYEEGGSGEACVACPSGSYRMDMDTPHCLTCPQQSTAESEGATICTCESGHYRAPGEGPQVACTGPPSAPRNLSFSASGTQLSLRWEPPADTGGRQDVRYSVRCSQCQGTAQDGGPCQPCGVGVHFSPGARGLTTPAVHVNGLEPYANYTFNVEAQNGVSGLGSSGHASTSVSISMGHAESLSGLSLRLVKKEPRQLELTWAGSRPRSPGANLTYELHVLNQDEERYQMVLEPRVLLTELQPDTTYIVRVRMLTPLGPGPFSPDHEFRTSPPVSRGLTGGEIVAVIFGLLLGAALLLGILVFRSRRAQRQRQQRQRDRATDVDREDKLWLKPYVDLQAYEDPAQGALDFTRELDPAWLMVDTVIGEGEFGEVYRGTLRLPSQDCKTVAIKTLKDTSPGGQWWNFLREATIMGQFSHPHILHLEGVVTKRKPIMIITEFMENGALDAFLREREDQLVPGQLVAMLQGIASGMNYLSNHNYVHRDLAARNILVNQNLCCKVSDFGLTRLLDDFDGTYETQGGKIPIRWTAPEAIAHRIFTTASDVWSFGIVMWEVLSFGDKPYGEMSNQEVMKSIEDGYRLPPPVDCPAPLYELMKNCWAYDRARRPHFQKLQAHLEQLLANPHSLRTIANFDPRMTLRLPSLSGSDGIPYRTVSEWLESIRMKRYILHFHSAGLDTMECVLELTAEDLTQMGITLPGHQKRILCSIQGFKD

[5] = biological target: panel of 255 wild-type kinases (Homo sapiens, UniProt Q15303); settings: read-out: %-inhibition at 1 µmol/L, HER4
[6] = biological target: panel of 255 wild-type kinases (Homo sapiens, UniProt Q16539); settings: read-out: %-inhibition, p38α
[7] = biological target: panel of 255 wild-type kinases (Homo sapiens, UniProt P22455); settings: read-out: %-inhibition at 1 µmol/L, FGFR4
[8] = biological target: panel of 255 wild-type kinases (Homo sapiens, UniProt Q8N568); settings: read-out: %-inhibition at 1 µmol/L, DCAMKL2
[9] = biological target: panel of 255 wild-type kinases (Homo sapiens, UniProt Q08345); settings: read-out: %-inhibition at 1 µmol/L, DDR1
[10] = biological target: panel of 255 wild-type kinases (Homo sapiens, UniProt Q15349); settings: read-out: %-inhibition at 1 µmol/L, RSK3
[11] = biological target: panel of 255 wild-type kinases (Homo sapiens, UniProt Q13153); settings: read-out: %-inhibition, PAK1
[12] = kinase CSK, 1 µmol/L single concentration
[13] = AKT1 kinase assay, 1 µmol/L single concentration
[14] = kinase EPHA6, 1 µmol/L single concentration
[15] = kinase EPHA1, 1 µmol/L single concentration
[16] = kinase HER4, 1 µmol/L single concentration
[17] = p38α, 1 µmol/L single concentration
[18] = kinase FGFR4, 1 µmol/L single concentration
[19] = kinase DCAMKL2, 1 µmol/L single concentration
[20] = kinase DDR1, 1 µmol/L single concentration
[21] = kinase RSK3, 1 µmol/L single concentration
[22] = PAK1, 1 µmol/L single concentration

Compound | inhibition at 1 µM [1, 12] [%] | inhibition at 1 µM [2, 13] [%] | inhibition at 1 µM [3, 14] [%] | inhibition at 1 µM [4, 15] [%] | inhibition at 1 µM [5, 16] [%] | inhibition at 1 µM [6, 17] [%] | inhibition at 1 µM [7, 18] [%] | inhibition at 1 µM [8, 19] [%] | inhibition at 1 µM [9, 20] [%] | inhibition at 1 µM [10, 21] [%] | inhibition at 1 µM [11, 22] [%] | other results
Cn1cnc2c(F)c(Nc3ccc(Br)cc3Cl)c(C(=O)NOCCO)cc21 [selumetinib] | 0.0795 | -11 | 1 | -2.25 | 33 | 3.34 | 6.37 | 0.902 | 4.73 | 4.41 | 7 | 
COc1ccc(CN2C3CC2CN(c2ccc(-c4cc(OCC(C)(C)O)cn5ncc(C#N)c45)cn2)C3)cn1 [selpercatinib] | 1.77 | -10 | 98 | 79 | 7.42 | -0.132 | 84 | 1.22 | 89 | 56 | -5.31 | 
O=C(Nc1cnn2ccc(N3CCC[C@@H]3c3cc(F)ccc3F)nc12)N1CC[C@H](O)C1 [larotrectinib] | -5 | -15 | -0.585 | -2.54 | 10 | -1.34 | 6 | 0.701 | 41 | -10 | -3.56 | 
CCN1C(=O)N(c2c(F)c(OC)cc(OC)c2F)Cc2cnc3[nH]c(CN4CCOCC4)cc3c21 [pemigatinib] | 2.28 | -12 | -3 | -4 | 5 | 14 | 100 | 27 | 41 | -7.51 | -3.62 | 
CNC(=O)c1ccc(-c2cnc3ncc(Cc4ccc5ncccc5c4)n3n2)cc1F [capmatinib] |  |  |  |  |  |  |  |  |  |  |  | inhibition at 1 µM [1]: -9%; inhibition at 1 µM [2]: -10%; inhibition at 1 µM [3]: -2%; inhibition at 1 µM [4]: -3.32%; inhibition at 1 µM [5]: 21%; inhibition at 1 µM [6]: 3.37%; inhibition at 1 µM [7]: 8%; inhibition at 1 µM [8]: -1.61%; inhibition at 1 µM [9]: -2.22e-14%; inhibition at 1 µM [10]: 5%; inhibition at 1 µM [11]: 4.66%
FC(F)(F)c1ccc(CNc2ccc(Cc3c[nH]c4ncc(Cl)cc34)cn2)cn1 [pexidartinib] | 9 | -20 | 18 | 7 | 13 | 0.932 | 7.42 | 3.25 | 84 | 42 | 2 | 
C[C@H](Nc1ncnc2nc[nH]c12)c1cc2cccc(Cl)c2c(=O)n1-c1ccccc1 [duvelisib] | 1.86 | -6 | 5.71 | -7 | -0.702 | 5 | 5 | 7.51 | 6 | -0.46 | -0.68 | 
C=CC(=O)N1CCC([C@@H]2CCNc3c(C(N)=O)c(-c4ccc(Oc5ccccc5)cc4)nn32)CC1 [zanubrutinib] |  | -13 | 14 | -0.68 |  | -1.11 | 7.51 | 0.323 | 3 | -7 | -2.56 | inhibition at 1 µM [5]: 99%
C[C@H]1Oc2cc(cnc2N)-c2c(nn(C)c2C#N)CN(C)C(=O)c2ccc(F)cc21 [lorlatinib] | 1.12 | -4 | 76 | 73 | 11 | 6 | 20 | 74 |  | 2.53 | -2.12 | 
CCN1CCN(c2ccc(Nc3cc(N(C)C(=O)Nc4c(Cl)c(OC)cc(OC)c4Cl)ncn3)cc2)CC1 [infigratinib] | 2.24 | -12 | 28 | -2 | 26 | 4.45 |  | 4.25 | 96 | -0.616 | 5 | 
CN1CCN(c2ccc(C(=O)Nc3n[nH]c4ccc(Cc5cc(F)cc(F)c5)cc34)c(NC3CCOCC3)c2)CC1 [entrectinib] | 8 | -9 | 44 | 88 | 32 | 7 | 38 | 16 | 99 |  | -10 | 
Cn1cc(-c2cc3c(N4CCN(c5ncc([C@@](C)(N)c6ccc(F)cc6)cn5)CC4)ncnn3c2)cn1 [avapritinib] | 2.57 | -9 | 7 | 51 | 25 | 0.843 | 41 | 3.65 |  | 10 | 0.845 | 
